# Results from US10676440B2, “Crystalline forms of an NK-1 antagonist” (Helsinn Healthcare SA, priority 2014, dated 2020).
# Key:
# in vivo = conditions: male, dog, in vivo, iv, 3 mg/kg, mean AUC(0-102 h)
# Protocol: In Example 10, the pharmacokinetics of the compound of Formula I in dogs following single intravenous and oral administration was evaluated and the oral bioavailability of five different salts of the compound of Formula I was compared. The compound of Formula I was administered to dogs as described in Table 12. The doses are expressed in mg of free base.
# The experiments were performed in 15 male dogs (bodyweight 11-18 kg) from RCC Ltd., Biotechnology and Animal Breeding Division, Wolferstrasse 4, CH-4414, Fullinsdorf, Switzerland. The animals were housed under standard laboratory conditions throughout the study period.
# For the pharmacokinetic studies, 1 mL blood samples were collected from the cephalic vein of the dogs via catheter at 15, 30 min and at 1, 2, 3, 4, 6, 8, 24, 32, 48, 56, 72, 80, 96, and 100 (or 104) hours following oral dosing. After intravenous administration, blood samples were collected at 5, 15, 30 min and 1, 2, 3, 4, 6, 8, 24, 32, 48, 56, 75, 102, 120, 128, 144, 152, 168, 176, 192, and 200 hours. Collection tubes contained EDTA/NaF as anticoagulant and stabilizer. After centrifugation, plasma was removed and stored deep frozen at approximately −20° C. until analysis using a specific LC-MS method.
# Aliquots of 40 μL plasma were mixed with 50 μL buffer at pH 5, 50 μL internal standard of Formula I (1 μg/mL in 1-chlorobutane) and 250 μL butylacetate and then shaken for 10 min. After centrifugation, 200 μL of the supernatant were evaporated to dryness at 45° C. under a stream of nitrogen. The residue was reconstituted with 200 μL acetonitrile/1% formic acid in water (30/70, v/v). Aliquots of 30 μL were injected onto the analytical column (Waters, Symmetry C8, 2.1×150 mm, 5 μm).
# Separation occurred by gradient elution using a solvent A (acetonitrile) and solvent B (1% formic acid in water). The flow rate was 0.3 mL/min and the gradient elution was: […]
# The sample passed to the ion-spray interface of the single quadrupole mass spectrometer. Selected ion monitoring mode (SIM) was used for mass spectrometric detection. Quantification was based on peak area ratios and calibration curve established between 2 and 5000 ng/mL.
# To a 100 μL sample aliquot were added 200 μL of a mixture of acetonitrile/ethanol containing the deuterated internal standard, to precipitate plasma proteins. After vortex mixing and centrifugation, aliquots of the supernatants were transferred to 96-deel-well plates and injected for analysis (5 μL). Following enrichment and cleanup on the trapping column, the analyte was eluted and separated by gradient elution on a 2.1*30 mm analytical column (XTerra MS C18). The effluent from the analytical column was passed to the turbo ion spray vie a divert valve.
# Calibration standards were prepared in dog plasma. The calibration range was from 10-5000 ng/mL. In each analytical series, a set of calibration standards was worked up and run with the unknowns. Calibration was then performed by computing a weighted (1/X^2) least-squares linear regression line of the measured peak area ratios (Y) (analyte to internal standard) versus the spiked concentrations (X). The drug concentrations of the unknown samples were then calculated from this regression line (UNICHROM). The performance of the analytical procedure during sample analysis was monitored. With each analytical series, quality control (QC) samples in dog plasma, spiked with known amounts of the analyte, were run together with the study samples.
# The pharmacokinetic parameters were estimated by non-compartmental analysis, using the pharmacokinetic evaluation program WinNOnlin [1]. AUC(0-inf.) was calculated applying the linear trapezoidal rule and extrapolation to infinity using the apparent elimination rate constant kz and the calculated concentration at the last measurable time point. AUClast values were calculated by linear trapezoidal rule from time zero to time of last measureable time point.
# [1] = Brain and CSF penetration after intravenous administration in rats; format: in vivo; conditions: male, RoRo Fuellinsdorf, rat, brain homogenate / plasma, i.v., approximately 0.25, 0.5, 1 and 2 h, read-out: ratios of brain homogenate/plasma concentrations
# Protocol: After centrifugation, plasma was removed.
# The frozen half brain was weighed. After thawing, the tissue was suspended in a 2 mL eppendorf polypropylene tube with 2 volumes of sterile apyrogen and cold NaCl (+4° C.; 0.9% solution) (0.333 g brain/mL NaCl). The tissue was homogenized (ice bath) using a Vibra-Cell ultrasonic processor (Sonics & Material, Inc. Danbury, CT-USA) for 2×10 s (amplitude: 60, energy: 25). An aliquot of the resulting brain homogenate (40 μL) was used for extraction as described for plasma. 50 μL CSF with 50 μL plasma were used for extraction as described under plasma sample preparation.
# Brains were taken at approximately 0.25, 0.5, 1 and 2 h after intravenous administration of Formula I into the tail vein of 8 rats (2 rats per time point). For all time points, the concentrations were higher in the brain than in the plasma, with ratios of brain homogenate/plasma concentrations of 2.4 to 4.9. The CSF was taken at the same time points and analyzed but the concentrations were low (4.9 to 16 ng/mL or below 4 ng/mL), possibly due to the high plasma protein binding.
structure (smiles),measurement,setting,value
"Cc1ccccc1-c1cc(N2CCN(C)CC2)ncc1N(C)C(=O)C(C)(C)c1cc(C(F)(F)F)cc(C(F)(F)F)c1 [Formula I, 2-(3,5-bis(trifluoromethyl)phenyl)-N,2-dimethyl-N-(6-(4-methylpiperazin-1-yl)-4-(o-tolyl)pyridin-3-yl)propanamide]",AUC(0-t),in vivo,11800 ng·h/mL
same,Kp,[1],2.4 to 4.9
